ChEMBL document CHEMBL4138244, “Structure-based identification of a NEDD8-activating enzyme inhibitor via drug repurposing” (Eur J Med Chem, 2018)
Active and inactive are the calls of the source. The calls are words filed in the database; no cut-off is given here.

What was measured:
[1] = target: T1, Ubiquitin-like modifier-activating enzyme 1 (Homo sapiens) (UniProt P22314); test: Inhibition of UAE1-mediated Ubc10-ubiquitin conjugation in human Caco2 cells up to 10 uM preincubated for 10 mins followed by ATP and Mg2+ addition measured after 60 mins by Western blot analysis; format: cell-based
T1 sequence (whole entry): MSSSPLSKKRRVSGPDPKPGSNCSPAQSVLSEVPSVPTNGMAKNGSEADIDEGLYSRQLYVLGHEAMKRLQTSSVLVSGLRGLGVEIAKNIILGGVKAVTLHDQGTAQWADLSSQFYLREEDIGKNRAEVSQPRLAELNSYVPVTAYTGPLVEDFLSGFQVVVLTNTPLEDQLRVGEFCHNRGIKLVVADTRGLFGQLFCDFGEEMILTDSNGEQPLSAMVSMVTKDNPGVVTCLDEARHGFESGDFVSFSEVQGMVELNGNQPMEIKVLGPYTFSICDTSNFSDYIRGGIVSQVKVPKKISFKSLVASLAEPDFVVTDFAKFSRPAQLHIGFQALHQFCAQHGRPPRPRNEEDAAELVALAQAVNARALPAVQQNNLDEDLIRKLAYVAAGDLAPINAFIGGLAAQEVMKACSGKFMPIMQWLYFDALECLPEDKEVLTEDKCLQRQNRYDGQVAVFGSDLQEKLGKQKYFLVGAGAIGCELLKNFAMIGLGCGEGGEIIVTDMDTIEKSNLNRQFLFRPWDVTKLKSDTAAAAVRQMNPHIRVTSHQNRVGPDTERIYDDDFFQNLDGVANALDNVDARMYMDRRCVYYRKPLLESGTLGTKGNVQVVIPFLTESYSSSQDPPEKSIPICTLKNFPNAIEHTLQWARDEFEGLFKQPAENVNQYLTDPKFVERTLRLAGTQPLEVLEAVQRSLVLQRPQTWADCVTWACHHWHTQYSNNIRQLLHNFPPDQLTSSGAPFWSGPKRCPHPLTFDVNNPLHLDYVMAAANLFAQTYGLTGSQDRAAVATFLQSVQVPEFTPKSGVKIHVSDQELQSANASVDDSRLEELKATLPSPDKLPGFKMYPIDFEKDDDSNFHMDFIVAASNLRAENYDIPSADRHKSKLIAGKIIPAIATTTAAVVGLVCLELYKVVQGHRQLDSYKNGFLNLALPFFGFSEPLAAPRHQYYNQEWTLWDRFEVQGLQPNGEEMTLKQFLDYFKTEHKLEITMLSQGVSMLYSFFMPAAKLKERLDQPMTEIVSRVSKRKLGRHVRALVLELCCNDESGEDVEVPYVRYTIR

[2] = tested on: Caco-2; test: Induction of apoptosis in human Caco2 cells assessed as early apoptotic cells at 1 uM after 16 hrs by Annexin V-FITC/propidium iodide staining-based flow cytometric analysis (reference value: 1.40%); format: functional
[3] = target: T2, NEDD8 activating enzyme (Homo sapiens) (UniProt Q8TBC4+Q13564); test: Inhibition of NAE in human Caco2 cells assessed as increase in p53 protein levels at 1 to 10 uM after 16 hrs by Western blot analysis; format: cell-based
[4] = target: T2, NEDD8 activating enzyme (Homo sapiens); test: Inhibition of NAE (unknown origin) assessed as decrease in NAE-mediated Ubc12-NEDD8 conjugation levels preincubated for 10 mins followed by ATP and Mg2+ addition measured after 60 mins by Western blot analysis; format: protein-complex assay
[5] = tested on: Caco-2; test: Cytotoxicity against human Caco2 cells after 72 hrs by MTT assay; format: functional, cell-based; conditions: Caco-2, 72 h
[6] = tested on: Caco-2; test: Induction of apoptosis in human Caco2 cells assessed as necrotic cells at 5 uM after 16 hrs by Annexin V-FITC/propidium iodide staining-based flow cytometric analysis (reference value: 0.12%); format: functional
[7] = tested on: Caco-2; test: Induction of apoptosis in human Caco2 cells assessed as early apoptotic cells at 5 uM after 16 hrs by Annexin V-FITC/propidium iodide staining-based flow cytometric analysis (reference value: 1.40%); format: functional
[8] = tested on: Caco-2; test: Induction of apoptosis in human Caco2 cells assessed as viable cells at 10 uM after 16 hrs by Annexin V-FITC/propidium iodide staining-based flow cytometric analysis (reference value: 98.4%); format: functional; conditions: Caco-2, 16 h, read-out: Activity
[9] = tested on: Caco-2; test: Induction of apoptosis in human Caco2 cells assessed as late apoptotic cells at 5 uM after 16 hrs by Annexin V-FITC/propidium iodide staining-based flow cytometric analysis (reference value: 0.072%); format: functional
[10] = target: T2, NEDD8 activating enzyme (Homo sapiens); test: Inhibition of NAE-mediated Ubcl2-NEDD8 conjugation in human Caco2 cells at 10 uM after 16 hrs by Western blot analysis; format: cell-based
[11] = target: T2, NEDD8 activating enzyme (Homo sapiens); test: Competitive inhibition of NAE (unknown origin) assessed as decrease in NAE-mediated Ubc12-NEDD8 conjugation levels at 10 uM preincubated for 10 mins followed by Mg2+ and various concentrations of ATP addition measured after 60 mins by Lineweaver-Burk plot analysis; format: protein-complex assay
[12] = tested on: Caco-2; test: Induction of apoptosis in human Caco2 cells assessed as necrotic cells at 10 uM after 16 hrs by Annexin V-FITC/propidium iodide staining-based flow cytometric analysis (reference value: 0.12%); format: functional
[13] = target: T2, NEDD8 activating enzyme (Homo sapiens); test: Inhibition of NAE in human Caco2 cells assessed as increase in c-myc protein levels after 16 hrs by Western blot analysis; format: cell-based
[14] = target: T2, NEDD8 activating enzyme (Homo sapiens); test: Inhibition of NAE in human Caco2 cells assessed as increase in phosphorylated NF-kappaB protein levels at 0.1 to 10 uM after 16 hrs by Western blot analysis; format: cell-based
[15] = target: T3, SUMO-activating enzyme (Homo sapiens) (UniProt Q9UBE0+Q9UBT2); test: Inhibition of SAE-mediated Ubc9-SUMO conjugation in human Caco2 cells up to 10 uM preincubated for 10 mins followed by ATP and Mg2+ addition measured after 60 mins by Western blot analysis; format: cell-based
[16] = target: T2, NEDD8 activating enzyme (Homo sapiens); test: Inhibition of NAE in human Caco2 cells assessed as increase in p53 protein levels at 0.1 to 10 uM after 16 hrs by Western blot analysis; format: cell-based
[17] = tested on: Caco-2; test: Cytotoxicity against NAE-knockdown human Caco2 cells after 72 hrs by MTT assay; format: cell-based; conditions: Caco-2, 72 h
[18] = target: T2, NEDD8 activating enzyme (Homo sapiens); test: Inhibition of NAE (unknown origin) assessed as decrease in NAE-mediated Ubc12-NEDD8 conjugation levels at 10 uM treated for 10 mins post ATP and Mg2+ addition measured after 60 mins by Western blot analysis; format: protein-complex assay
[19] = target: T4, NEDD8 activating enzyme (Homo sapiens, UniProt Q8TBC4); test: (§1) Inhibition of NAE-mediated Ubcl2-NEDD8 conjugation in human Caco2 cells after 16 hrs by Western blot analysis; format: cell-based
T4 sequence (Q8TBC4 whole entry): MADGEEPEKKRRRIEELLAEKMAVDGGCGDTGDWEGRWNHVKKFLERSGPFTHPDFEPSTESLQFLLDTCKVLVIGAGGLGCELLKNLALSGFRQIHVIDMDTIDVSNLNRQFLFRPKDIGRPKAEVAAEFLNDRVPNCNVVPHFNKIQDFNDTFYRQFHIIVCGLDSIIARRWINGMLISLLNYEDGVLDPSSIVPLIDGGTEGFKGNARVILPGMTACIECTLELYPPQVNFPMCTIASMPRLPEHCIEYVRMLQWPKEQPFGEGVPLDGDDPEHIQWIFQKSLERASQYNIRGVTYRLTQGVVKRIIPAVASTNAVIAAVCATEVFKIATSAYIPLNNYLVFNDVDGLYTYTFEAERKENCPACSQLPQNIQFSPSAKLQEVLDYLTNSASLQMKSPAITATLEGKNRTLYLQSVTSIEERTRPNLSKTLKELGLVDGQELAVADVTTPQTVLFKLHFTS
T4 sequence (Q13564 whole entry): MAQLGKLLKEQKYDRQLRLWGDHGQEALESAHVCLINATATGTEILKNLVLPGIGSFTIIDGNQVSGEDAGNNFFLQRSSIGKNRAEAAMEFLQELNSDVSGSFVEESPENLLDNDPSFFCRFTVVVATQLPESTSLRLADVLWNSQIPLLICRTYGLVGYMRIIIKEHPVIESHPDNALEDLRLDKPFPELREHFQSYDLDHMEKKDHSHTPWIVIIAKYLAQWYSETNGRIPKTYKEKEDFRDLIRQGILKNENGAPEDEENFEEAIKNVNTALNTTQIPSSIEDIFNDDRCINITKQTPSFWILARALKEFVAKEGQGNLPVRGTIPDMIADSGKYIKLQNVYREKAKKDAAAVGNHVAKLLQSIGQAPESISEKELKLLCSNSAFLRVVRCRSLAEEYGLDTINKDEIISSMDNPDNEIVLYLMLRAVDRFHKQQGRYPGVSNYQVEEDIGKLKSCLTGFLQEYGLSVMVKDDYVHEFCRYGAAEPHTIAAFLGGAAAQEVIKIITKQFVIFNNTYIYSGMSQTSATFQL

[20] = target: T2, NEDD8 activating enzyme (Homo sapiens); test: as §1; format: cell-based
[21] = tested on: Caco-2; test: Upregulation of p53 protein levels in NAE knockdown human Caco2 cells at 10 uM after 16 hrs by Western blot analysis; format: functional, cell-based
[22] = target: T2, NEDD8 activating enzyme (Homo sapiens); test: Inhibition of NAE in human Caco2 cells assessed as increase in p27 protein levels at 0.1 to 10 uM after 16 hrs by Western blot analysis; format: cell-based
[23] = tested on: Caco-2; test: Induction of apoptosis in human Caco2 cells assessed as viable cells at 5 uM after 16 hrs by Annexin V-FITC/propidium iodide staining-based flow cytometric analysis (reference value: 98.4%); format: functional; conditions: Caco-2, 16 h, read-out: Activity
[24] = target: T2, NEDD8 activating enzyme (Homo sapiens); test: Inhibition of NAE in human Caco2 cells assessed as decrease in cyclin D1 protein levels at 0.1 to 10 uM after 16 hrs by Western blot analysis; format: cell-based
[25] = target: T2, NEDD8 activating enzyme (Homo sapiens); test: Inhibition of NAE in human Caco2 cells assessed as decrease in Bcl2 protein levels at 0.1 to 10 uM after 16 hrs by Western blot analysis; format: cell-based
[26] = tested on: Caco-2; test: Induction of apoptosis in human Caco2 cells assessed as late apoptotic cells at 10 uM after 16 hrs by Annexin V-FITC/propidium iodide staining-based flow cytometric analysis (reference value: 0.072%); format: functional
[27] = target: T3, SUMO-activating enzyme (Homo sapiens); test: Inhibition of SAE (unknown origin) assessed as decrease in SAE-mediated Ubc9-SUMO conjugation levels up to 10 uM preincubated for 10 mins followed by ATP and Mg2+ addition measured after 60 mins by Western blot analysis; format: protein-complex assay
[28] = tested on: Caco-2; test: Induction of apoptosis in human Caco2 cells assessed as viable cells at 1 uM after 16 hrs by Annexin V-FITC/propidium iodide staining-based flow cytometric analysis (reference value: 98.4%); format: functional; conditions: Caco-2, 16 h, read-out: Activity
[29] = tested on: Caco-2; test: Induction of apoptosis in human Caco2 cells assessed as early apoptotic cells at 10 uM after 16 hrs by Annexin V-FITC/propidium iodide staining-based flow cytometric analysis (reference value: 1.40%); format: functional
[30] = target: T1, Ubiquitin-like modifier-activating enzyme 1 (Homo sapiens); test: Inhibition of UAE1 (unknown origin) assessed as decrease in UAE1-mediated Ubc10-ubiquitin conjugation levels up to 10 uM preincubated for 10 mins followed by ATP and Mg2+ addition measured after 60 mins by Western blot analysis
[31] = target: T2, NEDD8 activating enzyme (Homo sapiens); test: Inhibition of NAE in human Caco2 cells harboring p53-luc plasmid assessed as increase in p53 transcriptional activity after 16 hrs by luciferase reporter gene assay; format: cell-based
[32] = tested on: Caco-2; test: Induction of apoptosis in human Caco2 cells assessed as late apoptotic cells at 1 uM after 16 hrs by Annexin V-FITC/propidium iodide staining-based flow cytometric analysis (reference value: 0.072%); format: functional
[33] = target: T2, NEDD8 activating enzyme (Homo sapiens); test: Inhibition of NAE in human Caco2 cells assessed as increase in beta-catenin protein levels after 16 hrs by Western blot analysis; format: cell-based
[34] = tested on: Caco-2; test: Induction of apoptosis in human Caco2 cells assessed as necrotic cells at 1 uM after 16 hrs by Annexin V-FITC/propidium iodide staining-based flow cytometric analysis (reference value: 0.12%); format: functional
[35] = target: T2, NEDD8 activating enzyme (Homo sapiens); test: Inhibition of NAE in human Caco2 cells assessed as increase in p53 protein levels by measuring p53 degradation at 10 uM preincubated for 16 hrs followed by cycloheximide addition measured up to 60 mins by Western blot analysis relative to control; format: cell-based; parameters: scale not given: the % may be the effect or the level left

## O=C1c2c(O)ccc(O)c2C(=O)c2c(NCCNCCO)ccc(NCCNCCO)c21 [MITOXANTRONE]
[1]
  inhibition: inactive
[2]
  Activity: 42%
[3]
  inhibition: Active
[4]
  inhibition: Dose-dependent effect
[5]
  IC50: 1400 nM
[6]
  Activity: 6.07%
[7]
  Activity: 27.8%
[8]
  viability at 10 µM: 3.34%
[9]
  Activity: 50.7%
[10]
  inhibition: Active
[11]
  inhibition: Active
[12]
  Activity: 73.6%
[13]
  inhibition: Dose-dependent effect
[14]
  inhibition: Active
[15]
  inhibition: inactive
[16]
  inhibition: Active
[17]
  IC50: > 10000 nM
[18]
  inhibition: inactive
[19]
  EC50: 1300 nM
[20]
  inhibition: Dose-dependent effect
[21]
  Activity: Active
[22]
  inhibition: Active
[23]
  viability at 5 µM: 15.4%
[24]
  inhibition: Active
[25]
  inhibition: Active
[26]
  Activity: 22.1%
[27]
  inhibition: inactive
[28]
  viability at 1 µM: 36%
[29]
  Activity: 0.91%
[30]
  inhibition: inactive
[31]
  inhibition: Dose-dependent effect
[32]
  Activity: 19.4%
[33]
  inhibition: Dose-dependent effect
[34]
  Activity: 2.49%
[35]
  Activity: 15%

## COc1cc([C@@H]2c3cc4c(cc3[C@H](O)[C@H]3COC(=O)[C@H]23)OCO4)cc(OC)c1OC
[3]
  inhibition: Active

## NS(=O)(=O)OC[C@@H]1C[C@@H](n2ccc3c(N[C@H]4CCc5ccccc54)ncnc32)C[C@@H]1O [PEVONEDISTAT]
[5]
  IC50: 4400 nM
[8]
  viability at 10 µM: 46.6%
[11]
  inhibition: Active
[12]
  Activity: 6.27%
[20]
  inhibition: Dose-dependent effect
[26]
  Activity: 14.3%
[29]
  Activity: 32.8%
